The text below walks through data of patent US12139520B2 (priority 2020, dated 2024).

Bridge positions count the residues as written; N and C are the ends. Square brackets hold non-standard residues; d marks the D form. Peptide text beside a SMILES is read from it. Hyp = O=C(O)[C@@H]1C[C@@H](O)CN1

The target of series [1] is T1, hAMY3 receptor (Homo sapiens, UniProt O60896+P30988).
T1 sequence (P30988 25-474): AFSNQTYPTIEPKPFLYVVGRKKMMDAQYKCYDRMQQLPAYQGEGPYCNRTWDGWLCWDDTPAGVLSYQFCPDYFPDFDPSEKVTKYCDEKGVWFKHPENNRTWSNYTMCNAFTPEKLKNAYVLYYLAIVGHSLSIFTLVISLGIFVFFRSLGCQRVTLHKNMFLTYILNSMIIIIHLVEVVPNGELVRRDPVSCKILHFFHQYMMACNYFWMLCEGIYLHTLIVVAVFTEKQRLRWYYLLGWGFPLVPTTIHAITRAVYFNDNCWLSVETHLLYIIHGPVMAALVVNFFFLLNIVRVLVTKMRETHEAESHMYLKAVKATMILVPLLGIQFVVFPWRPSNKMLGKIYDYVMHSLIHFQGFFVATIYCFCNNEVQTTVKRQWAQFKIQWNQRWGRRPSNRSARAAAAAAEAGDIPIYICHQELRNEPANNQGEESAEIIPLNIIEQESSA
T1 sequence (O60896 24-148 partner): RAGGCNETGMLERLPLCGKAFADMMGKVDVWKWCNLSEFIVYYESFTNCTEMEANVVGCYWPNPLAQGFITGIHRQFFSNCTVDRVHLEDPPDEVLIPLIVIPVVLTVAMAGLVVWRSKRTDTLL
Description: cAMP assay for in vitro receptor activation, hAMY3-R. In kind it is cell-based. Conditions: cAMP assay, hAMY3 receptor; read-out: hAMY3R EC50. Put shortly: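 Graded compound concentrations were applied for 30 min at room temperature to stably hAMY3-expressing cells in DPBS, 0.05% casein, 0.5 mM IBMX; cAMP detected by TR-FRET.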

Series [2] in a line: Physical stability of peptide analogues (Thioflavin T fibrillation). Format: physicochemical. As to conditions: maximum ThT signal normalized between hAMY maximum and buffer background; 40° C., shaking, four days; pH 7 per table title. The essentials:
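ThT fluorescence (450 nm excitation, 480 nm emission; 4 μM dye) was read every 10 min over four days at 40° C under 700 rpm shaking stress, after 1 h in pH 4 acetate or pH 7 phosphate (50 mM). Peak smoothed signal expressed as percent, scaled between buffer background and hAMY maximum.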

Broadly, the EC50 is the concentration that produces a half-maximal response. `CC[C@H](C)[C@H](NC(=O)[C@H](CCC(N)=O)NC(=O)[C@H](Cc1c[nH]cn1)NC(=O)[C@H](C)NC(=O)[C@H](CC(C)C)NC(=O)[C@H](CCCNC(=N)N)NC(=O)[C@H](CCC(N)=O)NC(=O)[C@@H](NC(=O)[C@@H](NC(=O)[C@@H]1CSSC[C@H](NC(=O)CN)C(=O)N[C@@H](CCCNC(=N)N)C(=O)N[C@@H]([C@@H](C)O)C(=O)NCC(=O)N[C@@H]([C@@H](C)O)C(=O)N1)[C@@H](C)O)C(C)C)C(=O)N[C@@H](Cc1ccc(O)cc1)C(=O)N[C@@H](CCC(N)=O)C(=O)N[C@@H](Cc1ccccc1)C(=O)N[C@H](C(=O)N[C@@H](CC(=O)O)C(=O)N[C@@H](CCCCN)C(=O)N[C@@H](CC(=O)O)C(=O)N[C@@H](CCCCN)C(=O)N[C@@H](CC(=O)O)C(=O)N[C@@H](CC(N)=O)C(=O)N[C@H](C(=O)N[C@@H](C)C(=O)N1CCC[C@H]1C(=O)N[C@@H](CCCNC(=N)N)C(=O)N[C@H](C(=O)N[C@@H](CCCCN)C(=O)N[C@H](C(=O)NCC(=O)N1CCC[C@H]1C(=O)N[C@@H](CCC(N)=O)C(=O)NCC(=O)N[C@@H](Cc1ccc(O)cc1)C(N)=O)C(C)C)[C@@H](C)O)C(C)C)[C@@H](C)O` [compound 156] (H-GCRTGTCTVQRLAHQIYQFTDKDKDNVAPRTKVGPQGY-NH2; disulfide 2-7; N-terminus assumed): in series [1], the EC50 was found to be 0.047 nM. Besides, the “Max ThT signal (%)” value in series [2] was 15.300%.
As for `CC[C@H](C)[C@H](NC(=O)[C@H](CCC(N)=O)NC(=O)[C@H](Cc1c[nH]cn1)NC(=O)[C@H](C)NC(=O)[C@H](CC(C)C)NC(=O)[C@H](CCCNC(=N)N)NC(=O)[C@H](CCC(N)=O)NC(=O)[C@@H](NC(=O)[C@@H](NC(=O)[C@@H]1CSSC[C@H](NC(=O)CN)C(=O)N[C@@H](CCCNC(=N)N)C(=O)N[C@@H](Cc2ccccc2)C(=O)NCC(=O)N[C@@H]([C@@H](C)O)C(=O)N1)[C@@H](C)O)C(C)C)C(=O)N[C@@H](Cc1ccc(O)cc1)C(=O)N[C@@H](CCC(N)=O)C(=O)N[C@@H](Cc1ccccc1)C(=O)N[C@H](C(=O)N[C@@H](CC(=O)O)C(=O)N[C@@H](CCCCN)C(=O)N[C@@H](CC(=O)O)C(=O)N[C@@H](CCCCN)C(=O)N[C@@H](CC(=O)O)C(=O)N[C@@H](CC(N)=O)C(=O)N[C@H](C(=O)N[C@@H](C)C(=O)N1CCC[C@H]1C(=O)N[C@@H](CCCNC(=N)N)C(=O)N[C@@H](CO)C(=O)N[C@@H](CC(N)=O)C(=O)N[C@H](C(=O)N[C@@H](CO)C(=O)N1CCC[C@H]1C(=O)N[C@@H](CCC(N)=O)C(=O)NCC(=O)N1C[C@H](O)C[C@H]1C(N)=O)[C@@H](C)CC)C(C)C)[C@@H](C)O` [compound 158] (H-GCRFGTCTVQRLAHQIYQFTDKDKDNVAPRSNISPQG[Hyp]-NH2; disulfide 2-7; N-terminus assumed), the EC50 in series [1] was determined as 0.048 nM. The “Max ThT signal (%)” value in series [2] is on record as 6.300%.
For the compound `CC[C@H](C)[C@H](NC(=O)[C@H](CCCCN)NC(=O)[C@@H](NC(=O)[C@H](CCCNC(=N)N)NC(=O)[C@@H]1CCCN1C(=O)[C@H](C)NC(=O)[C@@H](NC(=O)[C@H](CC(N)=O)NC(=O)[C@H](CC(=O)O)NC(=O)[C@H](CCCCN)NC(=O)[C@H](CC(=O)O)NC(=O)[C@H](CCCCN)NC(=O)[C@H](CC(=O)O)NC(=O)[C@@H](NC(=O)[C@H](Cc1ccccc1)NC(=O)[C@H](CCC(N)=O)NC(=O)[C@H](Cc1ccc(O)cc1)NC(=O)[C@@H](NC(=O)[C@H](CCC(N)=O)NC(=O)[C@H](Cc1c[nH]cn1)NC(=O)[C@H](C)NC(=O)[C@H](CC(C)C)NC(=O)[C@H](CCCNC(=N)N)NC(=O)[C@H](CCC(N)=O)NC(=O)[C@@H](NC(=O)[C@@H](NC(=O)[C@@H]1CSSC[C@H](NC(=O)CN)C(=O)N[C@@H](CCCNC(=N)N)C(=O)N[C@@H]([C@@H](C)O)C(=O)NCC(=O)N[C@@H]([C@@H](C)O)C(=O)N1)[C@@H](C)O)C(C)C)[C@@H](C)CC)[C@@H](C)O)C(C)C)[C@@H](C)O)C(=O)NCC(=O)N1CCC[C@H]1C(=O)N[C@@H](CCC(N)=O)C(=O)NCC(=O)N1C[C@H](O)C[C@H]1C(N)=O` [compound 161] (H-GCRTGTCTVQRLAHQIYQFTDKDKDNVAPRTKIGPQG[Hyp]-NH2; disulfide 2-7; N-terminus assumed), the EC50 in series [1] is 0.051 nM. Besides, the “Max ThT signal (%)” value in series [2] worked out at 14.300%.
In the same order, the values of `CC[C@H](C)[C@H](NC(=O)[C@H](CCC(N)=O)NC(=O)[C@H](Cc1c[nH]cn1)NC(=O)[C@H](C)NC(=O)[C@H](CC(C)C)NC(=O)[C@H](CCCNC(=N)N)NC(=O)[C@H](CCC(N)=O)NC(=O)[C@@H](NC(=O)[C@@H](NC(=O)[C@@H]1CSSC[C@H](NC(=O)CN)C(=O)N[C@@H](CCCNC(=N)N)C(=O)N[C@@H]([C@@H](C)O)C(=O)NCC(=O)N[C@@H]([C@@H](C)O)C(=O)N1)[C@@H](C)O)C(C)C)C(=O)N[C@@H](Cc1ccc(O)cc1)C(=O)N[C@@H](CCC(N)=O)C(=O)N[C@@H](Cc1ccccc1)C(=O)N[C@H](C(=O)N[C@@H](CC(=O)O)C(=O)N[C@@H](CCCCN)C(=O)N[C@@H](CC(=O)O)C(=O)N[C@@H](CCCCN)C(=O)N[C@@H](CC(=O)O)C(=O)N[C@@H](CC(N)=O)C(=O)N[C@H](C(=O)N[C@@H](C)C(=O)N1CCC[C@H]1C(=O)N[C@@H](CCCNC(=N)N)C(=O)N[C@H](C(=O)N[C@@H](CC(N)=O)C(=O)N[C@H](C(=O)N[C@@H](CO)C(=O)N1CCC[C@H]1C(=O)N[C@@H](CC(N)=O)C(=O)NCC(=O)N1C[C@H](O)C[C@H]1C(N)=O)C(C)C)[C@@H](C)O)C(C)C)[C@@H](C)O` [compound 163] (H-GCRTGTCTVQRLAHQIYQFTDKDKDNVAPRTNVSPNG[Hyp]-NH2; disulfide 2-7; N-terminus assumed) are 0.053 nM and 2.000%.
For `CC[C@H](C)[C@H](NC(=O)[C@H](CCC(N)=O)NC(=O)[C@H](Cc1c[nH]cn1)NC(=O)[C@H](C)NC(=O)[C@H](CC(C)C)NC(=O)[C@H](CCCNC(=N)N)NC(=O)[C@H](CCC(N)=O)NC(=O)[C@@H](NC(=O)[C@@H](NC(=O)[C@@H]1CSSC[C@H](NC(=O)CN)C(=O)N[C@@H](CCCNC(=N)N)C(=O)N[C@@H](Cc2ccccc2)C(=O)NCC(=O)N[C@@H]([C@@H](C)O)C(=O)N1)[C@@H](C)O)C(C)C)C(=O)N[C@@H](Cc1ccc(O)cc1)C(=O)N[C@@H](CCC(N)=O)C(=O)N[C@@H](Cc1ccccc1)C(=O)N[C@H](C(=O)N[C@@H](CC(=O)O)C(=O)N[C@@H](CCCCN)C(=O)N[C@@H](CC(=O)O)C(=O)N[C@@H](CCCCN)C(=O)N[C@@H](CC(=O)O)C(=O)N[C@@H](CC(N)=O)C(=O)N[C@H](C(=O)N[C@@H](C)C(=O)N1CCC[C@H]1C(=O)N[C@@H](CCCNC(=N)N)C(=O)N[C@H](C(=O)N[C@@H](CCCCN)C(=O)N[C@H](C(=O)N[C@@H](CO)C(=O)N1CCC[C@H]1C(=O)N[C@@H](CCC(N)=O)C(=O)NCC(=O)N[C@@H](Cc1ccc(O)cc1)C(N)=O)[C@@H](C)CC)[C@@H](C)O)C(C)C)[C@@H](C)O` [compound 164] (H-GCRFGTCTVQRLAHQIYQFTDKDKDNVAPRTKISPQGY-NH2; disulfide 2-7), the EC50 in series [1] was 0.054 nM. Further, in series [2], the “Max ThT signal (%)” value was found to be 24.300%.
